The text below walks through data of patent US7579378B2, “Sulfonamido compounds that antagonize the vanilloid TRPV1 receptor” (Pharmeste S.R.L., priority 2004, dated 2009).

In data set [1] the target is T1, TRPV1 receptor expressed in rat spinal cord (Rattus norvegicus, UniProt O35433).
T1 construct: spinal cord was removed and disrupted using a Polytron tissue homogenizer; from tissue; host or cells: rat spinal cord membranes (Sprague-Dawley)
The experiment in a line: [3H]-RTX competition binding assay. To be noted: for Ki: [3H]-RTX (0.4 nM) competition, rat spinal cord membranes, mean and 95% fiducial limits; for affinity for the TRPV1 receptor: in vitro, summary statement. On the procedure:
Male Sprague-Dawley rats with body weight between 250 to 350 g at the time for testing were used. For binding assays rats were sacrificed by decapitation under anesthesia and spinal cord was removed and disrupted using a Polytron tissue homogenizer in ice cold buffer containing 5 mM KCl, 5.8 mM NaCl, 0.75 mM CaCl2, 2 mM MgCl2, 320 mM sucrose, 10 mM Hepes, pH 8.6 (Szallasi and Blunberg, 1992; 1993). Tissue homogenized was centrifuged at 1000×g for 10 min at 4° C. and the sumatant was centrifuged again at 35000×g for 30 min at 4° C. (Beckman Avanti J25). The pellet was resuspended in the same buffer as described above and used in binding experiments. In saturation experiments, 150 μg protein/sample from membrane suspensions were incubated with ([^3H]-Resiniferatoxin, Perkin Elmer, Boston, Mass.) [^3H]-RTX (0.003-3 nM) in the assay buffer containing 0.25 mg/ml fatty acid-free bovine serum albumin at 37° C. for 60 min. In competition experiments, the membranes were incubated at 37° C. for 60 min with [^3H]RTX (0.4 nM) and increasing concentrations of examined compounds in the range from 0.1 nM to 3 μM. Non specific binding was defined in the presence of 1 μM RTX. After incubation the reaction mixture was cooled at 0° C. and incubated with bovine α1-acid glycoprotein (200 μg per tube) for 15 min to reduce non-specific RTX binding. Membrane-bound RTX was separated from the free through the centrifugation of the samples at 18500×g for 15 min. The tip of the microcentrifuge tube containing the pellet was cut off and the radioactivity was determined by scintillation counting (Packard 2500 TR). The protein concentration was determined according to a Bio-Rad method with bovine serum albumin as a standard reference (Bradford, 1976). Saturation and competition studies were analyzed with the program Ligand (Munson and Rodbard, 1980).

Data set [2] has as its target T2, TRPV1 expressing rat trigeminal neurons (Rattus norvegicus, UniProt O35433).
T2 construct: The ganglia were then dissociated into single cells; endogenous in cells; host or cells: primary cultured trigeminal ganglia neurons from newborn rats
Description: Ca2+ fluorescence measurements in cultured rat trigeminal ganglia neurons (capsaicin-induced calcium mobilisation). It counts as cell-based. To be noted: for IC50: against capsaicin (0.1 μM)-induced calcium mobilisation, 10 minutes incubation prior to capsaicin, mean and 95% fiducial limits. On the procedure: Newborn rats (2 days old) were terminally anaesthetized and decapitated. The trigeminal ganglia were removed and rapidly placed in cold phosphate buffered solution (PBS) before being transferred to collagenase/dispase (1 mg/ml dissolved in Ca^2+—Mg^2+-free PBS) for 35 min at 37° C. (Rigoni et al, 2003). After the enzymatic treatment ganglia were rinsed three times with Ca^2+—Mg^2+-free PBS and then placed in 2 ml of cold DMEM supplemented with 10% foetal bovine serum (FBS, heat inactivated), 2 mM L-glutamine, 100 u/ml penicillin and […] streptomycin. The ganglia were then dissociated into single cells by several passages through a series of syringe needles (23 G down to 25 G). Finally, the complex of medium and ganglia cells were sieved through a […] filter to remove debris and topped up with 8 ml of DMEM medium and centrifuged (200×g for 5 min). The final cell pellet was re-suspended in DMEM medium (supplemented with 100 ng/ml mouse Nerve Growth Factor (mouse-NGF-7S) and cytosine-b-D-arabino-furanoside free base (ARA-C) 2.5 mM). Cells were plated on poly-L-lysine (8.3 mM) and laminin (5 mM) coated 25 mm glass cover slips and kept for 2 to 5 days at 37° C. in a humidified incubator gassed with 5% CO2 and air. Plated neurons were loaded with Fura-2-AM-ester (3 μM) in Ca^2+ buffer solution of the following composition (mM): CaCl2 1.4, KCl 5.4, MgSO4 0.4, NaCl 135, D-glucose 5, HEPES 10 with BSA 0.1%, at pH 7.4, for 40 min at 37° C., washed twice with the Ca^2+ buffer solution and transferred to a chamber on the stage of Nikon eclipse TE300 microscope. The dye was excited at 340 and 380 nm to indicate relative [Ca^2+]i changes by the F340/F380 ratio recorded with a dynamic image analysis system (Laboratory Automation 2.0, RCS, Florence, Italy). Capsaicin (0.1 μM) and ionomycin (5 μM) were added to the chamber. A calibration curve using a buffer containing Fura-2-AM-ester and determinant concentrations of free Ca^2+ (Kudo et al., 1986) was used to convert the data obtained from F340/F380 ratio to [Ca^2+]i (nM).
The effects of all compounds were tested against capsaicin-induced calcium mobilisation. Antagonistic compounds were incubated for 10 minutes prior to the capsaicin challenge. The inhibitory effect of the TRPV1 antagonist, capsazepine, was also tested.
(In general: A change in cytosolic calcium serves as a functional read-out for many receptors and channels.)

In data set [3] the test system is capsaicin-induced wiping behaviour. Description: Wiping test in rats (capsaicin-induced wiping). It counts as in vivo, rat. On the procedure: The irritant effect (induction of wiping movements) of capsaicin was assessed by applying capsaicin 3 μg/eye (10 μl) on the rat conjunctiva and the number of wiping movements was recorded during the 60 sec period that followed the application. In other set of experiments, rats were treated intraperitoneally with diverse doses of 14 and capsaicin-induced wiping was studied.

Structures are written as SMILES.

T1 sequence (O35433 whole entry): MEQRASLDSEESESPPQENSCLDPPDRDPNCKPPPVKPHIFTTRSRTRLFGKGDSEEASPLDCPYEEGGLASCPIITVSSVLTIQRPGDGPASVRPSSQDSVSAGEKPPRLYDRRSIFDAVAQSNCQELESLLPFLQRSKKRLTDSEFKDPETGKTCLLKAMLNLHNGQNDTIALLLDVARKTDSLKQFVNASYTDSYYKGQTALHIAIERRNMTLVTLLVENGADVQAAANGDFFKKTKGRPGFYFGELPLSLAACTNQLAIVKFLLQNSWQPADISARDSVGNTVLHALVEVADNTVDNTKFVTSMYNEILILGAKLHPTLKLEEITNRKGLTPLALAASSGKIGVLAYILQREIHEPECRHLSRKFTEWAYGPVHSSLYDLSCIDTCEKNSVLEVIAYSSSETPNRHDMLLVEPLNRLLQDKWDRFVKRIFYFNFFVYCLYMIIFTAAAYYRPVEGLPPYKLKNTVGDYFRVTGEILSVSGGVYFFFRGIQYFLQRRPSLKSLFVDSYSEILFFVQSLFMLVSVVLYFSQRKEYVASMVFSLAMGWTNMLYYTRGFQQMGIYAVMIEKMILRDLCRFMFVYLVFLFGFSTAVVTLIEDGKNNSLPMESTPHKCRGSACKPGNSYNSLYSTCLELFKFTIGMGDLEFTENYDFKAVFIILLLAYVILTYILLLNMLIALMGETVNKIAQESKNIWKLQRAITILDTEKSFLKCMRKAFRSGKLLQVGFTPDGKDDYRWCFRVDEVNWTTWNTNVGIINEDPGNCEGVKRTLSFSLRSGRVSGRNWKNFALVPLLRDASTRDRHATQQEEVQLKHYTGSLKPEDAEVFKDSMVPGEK
T2 sequence (O35433 whole entry): as above

As to `COc1cc(CNS(=O)(=O)c2ccc(CCNC(=S)NCc3ccc(C(F)(F)F)cc3)cc2)c(I)cc1O` [Compound 33, N-(4-trifluoromethyl-benzyl)-N′-[4-(2-iodo-4-hydroxy-5-methoxy-benzyl)aminosulfonyl-2-phenylethyl]thiourea], the melting point amounted to 186 °C.

Consider `COc1cc(CNS(=O)(=O)c2ccc(NC(=S)NCc3ccc(C(F)(F)F)cc3)cc2)c(Cl)cc1O` [Compound 19, N-(4-trifluoromethyl-benzyl)-N′-[4-(2-chloro-4-hydroxy-5-methoxy-benzyl)aminosulfonyl]phenyl thiourea], for which the melting point was found to be 122 °C. Also, in data set [1], the affinity corresponds to a Ki of 756 nM and the “affinity for the TRPV1 receptor” value is recorded as “high affinity”. Besides, the IC50 in data set [2] amounted to 270 nM.

Consider `COc1cc(CNS(=O)(=O)c2ccc(NC(=S)NCc3ccc(C(C)(C)C)cc3)cc2)c(Br)cc1O` [Compound 20, N-(4-t-butyl-benzyl)-N′-[4-(2-bromo-4-hydroxy-5-methoxy-benzyl)aminosulfonyl]phenyl thiourea], for which, in data set [1], affinity was put at a Ki of 493 nM and the “affinity for the TRPV1 receptor” value was “high affinity”. In data set [2], the IC50 was determined as 212 nM.

With `Oc1cc2c(cc1O)CN(C(=S)NCCc1ccc(Cl)cc1)CCC2` [Capsazepine, capsazepine, reference compound], in data set [2], the IC50 was determined as 2170 nM.

As for `COc1cc(CNC(=O)CCCC/C=C/C(C)C)ccc1O` [Capsaicin, capsaicin, reference compound], the “rat trigeminal neuronal cells showing an increase in [Ca2+]i” value in data set [2] (capsaicin 0.1 μM) is reported as 87%.

For the compound `COc1cc(CNS(=O)(=O)c2ccc(NC(=S)NCc3ccc(C(C)(C)C)cc3)cc2)c(I)cc1O` [Compound 14, N-(4-t-butyl-benzyl)-N′-[4-(2-iodo-4-hydroxy-5-methoxy-benzyl)aminosulfonyl]phenyl thiourea], in data set [1], the Ki came to 90 nM and the “affinity for the TRPV1 receptor” value was “significantly greater than that of the classic TRPV1 receptor antagonist, capsazepine”. Also, in data set [3] (1 mg/kg intraperitoneal, 60 minutes prior to the capsaicin challenge (3 μg/eye)), the “inhibition of capsaicin-induced wiping behaviour” value is listed as 24%. Moreover, the “effect on capsaicin-induced wiping behaviour” value in data set [3] (intraperitoneal, 60 minutes prior to the capsaicin challenge, diverse doses) is reported as “dose dependent reduction”. The IC50 in data set [2] is 60 nM.

In turn, `COc1cc(CNS(=O)(=O)c2ccc(CCNC(=S)NCc3ccc(C(C)(C)C)cc3)cc2)c(I)cc1O` [Compound 32, N-(4-t-butyl-benzyl)-N′-[4-(2-iodo-4-hydroxy-5-methoxy-benzyl)aminosulfonyl-2-phenylethyl]thiourea] registered a melting point of 195 °C.

One may read the melting point as the temperature of the solid-liquid transition. One may read the Ki as the equilibrium dissociation constant of an inhibitor or competing ligand from its target. The low end stands for tighter binding, the high end for weaker binding. The term IC50 denotes the midpoint of a concentration-inhibition curve.
